Values quoted from earlier work as cited in patent publication US8618066B1 (priority 2003, dated 2013).
Entries after “also recorded” stand apart in the source; their conditions may differ. No end group written: not given here.

System: Gram+ & Gram− bacteria, fungi, virus, mammalian/cancer cells
Conditions: cited from earlier work

| Substance | Activity |
| --- | --- |
| AC-AMP2: peptide, source Amaranthus caudatus (VGECVRGRCPSGMCCSQFGYCGKGPKYCGR; ends and bridges not checked; cysteine pairing not given here; listed as Amaranthus caudatus) | Gram+, Fungi |
| AFP1: peptide, source Turnip (QKLCERPSGTWSGVCGNNNACKNQCIN; AFP1; listed as Brassica rapa) | Fungi |
| AMP1 (MJ-AMP1): peptide, source Garden four-o'clock (QCIGNGGRCNENVGPPYCCSGFCLRQPGQGYGYCKNR; antimicrobial peptidic agent1 (MJ-antimicrobial peptidic agent1); listed as Mirabilis jalapa) | Gram+, Fungi |
| AMP2 (MJ-AMP2): peptide, source Garden four-o'clock (CIGNGGRCNENVGPPYCCSGFCLRQPNQGYGVCRNR; antimicrobial peptidic agent2 (MJ-antimicrobial peptidic agent2); listed as Mirabilis jalapa) | Gram+, Fungi |
| Alpha-basrubrin (Fragment): source Malabar spinach (GADFQECMKEHSQKQHQHQG; Alpha-basrubrin (Fragment); listed as Basella alba) | Virus, Fungi |
| Anti-fungal protein 1 (pafp-s): source Phytolacca Americana (AGCIKNGGRCNASAGPPYCCSSYCFQIAGQSYGVCKNR; listed as Phytolacca americana) | Fungi |
| Antimicrobial peptide 1: peptide, source Common ice plant (AKCIKNGKGCREDQGPPFCCSGFCYRQVGWARGYCKNR; Antimicrobial peptide 1; listed as Mesembryanthemum crystallinum) | Gram+ & Gram−, Fungi |
| Aurein 1.1: peptide, source Southern bell frog (GLFDIIKKIAESI; Aurein 1.1; listed as Litoria raniformis) | Gram+ & Gram−, Fungi |
| BMAP-27: peptide, source Bovine (GRFKRFRKKFKKLFKKLSPVIPLLHLG; BMAP-27; listed as Bos taurus) | Gram+ & Gram−, Fungi |
| BMAP-28: peptide, source Bovine (GGLRSLGRKILRAWKKYGPIIVPIIRIG; BMAP-28; listed as Bos taurus) | Gram+ & Gram−, Fungi |
| BMAP-34: peptide, source Bovine (GLFRRLRDSIRRGQQKILEKARRIGERIKDIFRG; BMAP-34; listed as Bos taurus) | Gram+ & Gram−, Fungi |
| Brevinin-1BB: peptide, source Rio Grande leopard frog (FLPAIAGMAAKFLPKIFCAISKKC; Brevinin-1BB; listed as Rana berlandieri) | Gram+ & Gram−, Fungi |
| Buforin I: peptide, source Asian toad (AGRGKQGGKVRAKAKTRSSRAGLQFPVGRVHRLLRKGNY; Bufo bufo gargarizans; Buforin 1) | Gram+ & Gram−, Fungi |
| Cecropin A: peptide, source Nocutuid moth (RWKVFKKIEKVGRNIRDGVIKAAPAIEVLGQAKAL; Cecropin A; listed as Heliothis virescens) | Gram+ & Gram−, Fungi |
| Cecropin B: peptide, source Chinese oak silk moth (KWKIFKKIEKVGRNIRNGIIKAGPAVAVLGEAKAL; Cecropin B; listed as Antheraea pernyi) | Gram+ & Gram−, Fungi |
| Dolabellanin B2: peptide, source Sea hare (SHQDCYEALHKCMASHSKPFSCSMKFHMCLQQQ; Dolabellanin B2; listed as Dolabella auricularia) | Gram+ & Gram−, Fungi |
| FRLHF [SEQ ID No. 199] | Gram+ & Gram−, Fungi |
| FRLKFHF [SEQ ID No. 197] | Gram+ & Gram−, Fungi |
| FRLKHI [SEQ ID No. 198] | Gram+ & Gram−, Fungi |
| GNCP-1: peptide, source Guinea pig (RRCICTTRTCRFPYRRLGTCIFQNRVYTFCC; GNCP-1; listed as Cavia cutleri) | Gram+ & Gram−, Virus, Fungi |
| GNCP-2: peptide, source Guinea pig (RCICTTRTCRFPYRRLGTCLFQNRVYTFCC; GNCP-2; listed as Cavia cutleri) | Gram+ & Gram−, Virus, Fungi |
| Gaegurin-1: peptide, source Wrinkled frog (SLFSLIKAGAKFLGKNLLKQGACYAACKASKQC; Gaegurin-1; listed as Rana rugosa) | Gram+ & Gram−, Fungi |
| Ginkbilobin: source Ginkgo (ANTAFVSSAHNTQKIPAGAPFNRNLRAMLADLRQNAAFAG; Ginkbilobin; listed as Ginkgo biloba) | Gram+ & Gram−, Virus, Fungi |

| Substance | Activity |
| --- | --- |
| HNP-1 Defensin: peptide, source Human | Gram+ & Gram−, Virus, Fungi |
| HNP-2 Defensin: peptide, source Human (CYCRIPACIAGERRYGTCIYQGRLWAFCC; HNP-2 Defensin; listed as Homo sapiens) | Gram+ & Gram−, Virus, Fungi |
| HNP-3 Defensin: peptide, source Human | Gram+ & Gram−, Virus, Fungi |
| HNP-4 Defensin: peptide, source Human (VCSCRLVFCRRTELRVGNCLIGGVSFTYCCTRV; HNP-4 Defensin; listed as Homo sapiens) | Gram+ & Gram−, Fungi |
| HNP-5 Defensin: peptide, source Human (QARATCYCRTGRCATRESLSGVCEISGRLYRLCCR; HNP-5 Defensin; listed as Homo sapiens) | Gram+ & Gram−, Fungi |
| HNP-6 Defensin: peptide, source Human (STRAFTCHCRRSCYSTEYSYGTCTVMGINHRFCCL; HNP-6 Defensin; listed as Homo sapiens) | Gram+ & Gram−, Fungi |
| Hepcidin 20: peptide, source Human (ICIFCCGCCHRSKCGMCCKT; Hepcidin 20; listed as Homo sapiens) | Fungi |
| Hepcidin 25: peptide, source Human (DTHFPICIFCCGCCHRSKCGMCCKT; Hepcidin 25; listed as Homo sapiens) | Fungi |
| Hexapeptide: peptide, source Bovine (RRWQWR; hexapeptide; listed as Bos taurus) | Gram+ & Gram−, Virus, Fungi, |
| Histatin 1: peptide, source Crab eating macaque (DSHEERHHGRHGHHKYGRKFHEKHHSHRGYRSNYLYDN; Histatin 1; listed as Macaca fascicularis) | Gram+ & Gram−, Fungi |
| Histatin 3: peptide, source Human (DSHAKRHHGYKRKFHEKHHSHRGYRSNYLYDN; Histatin 3; listed as Homo sapiens) | Gram+ & Gram−, Fungi |
| Histatin 5: peptide, source Human (DSHAKRHHGYKRKFHEKHHSHRGY; Histatin 5; listed as Homo sapiens) | Gram+ & Gram−, Fungi |
| Histatin 8: antimicrobial peptide, Table 1 (KFHEKHHSHRGY; Histatin 8) | Gram+ & Gram−, Fungi |
| Histone H2A (fragment): source Rainbow trout (AERVGAGAPVYL; Oncorhynchus mykiss; Histone H2A (Fragment)) | Gram+, Fungi |
| Histone H2B-1 (HLP-1) (Fragment): source Rainbow trout (PDPAKTAPKKGSKKAVTKA; Oncorhynchus mykiss; Histone H2B-1(HLP-1)(Fragment)) | Gram+ & Gram−, Fungi |
| Histone H2b-3 (HLP-3) (Fragment): source Rainbow trout (PDPAKTAPKKKSKKAVT; Oncorhynchus mykiss; Histone H2B-3(HLP-3)(Fragment)) | Fungi |
| Ib-AMP3: peptide, source Impatiens balsamina (RHRCCAWGPGRKYCKRWC; Ib-antimicrobial peptidic agent3; listed as Impatiens balsamina) | Gram+, Fungi |
| Ib-AMP4: peptide, source Impatiens balsamina (GRRCCGWGPGRRYCRRWC; Ib-antimicrobial peptidic agent4; listed as Impatiens balsamina) | Gram+ Fungi |
| Indolicidin: peptide, source Bos Taurus (ILPWKWPWWPWRR; listed as Bos taurus) | Gram+ & Gram−, Virus, Fungi |
| Lactoferricin B: peptide, source Bovine (FKCRRWQWRMKKLGAPSITCVRRAF; Lactoferricin B; listed as Bos taurus) | Gram+ & Gram−, Virus, Fungi, |
| Lactoferrin (Lf) peptide 2: antimicrobial peptide, Table 1 (FKCRRWQWRM; lactoferrin (Lf) peptide 2) | Fungi |
| Lingual antimicrobial peptide: peptide, source Bovine (GFTQGVRNSQSCRRNKGICVPIRCPGSMRQIGTCLGAQVKCCRRK; Lingual antimicrobial peptide; listed as Bos taurus) | Gram+ & Gram−, Fungi |
| MBP-1: peptide, source Maize (RSGRGECRRQCLRRHEGQPWETQECMRRCRRRG; Zea mays; MBP-1) | Gram+ & Gram−, Fungi |

Same assay, conditions: classes of organisms/cells the peptide is active against; cited from earlier work

| Substance | Activity |
| --- | --- |
| ADENOREGULIN: peptide, source Two coloured leaf frong (GLWSKIKEVGKEAAKAAAKAAGKAALGAVSEAV; Phyllomedusa bicolor; Adenoregulin) | Gram+ & Gram−, Fungi |
| Androctonin: peptide, source Androctonus Australis (RSVCRQIKICRRRGGCYYKCTNRPY; listed as Androctonus australis) | Gram+ & Gram−, Fungi |
| Dhvar4: peptide, source Synthesis (KRLFKKLLFSLRKY; Synthesis dhvar4) | Gram+ & Gram−, Fungi |
| Dhvar5: peptide, source Synthesis (LLLFLLKKRKKRKY; Synthesis dhvar5) | Gram+ & Gram−, Fungi |
| Gomesin: peptide, source Synthetic (QCRRLCYKQRCVTYCRGR; Synthetic Gomesin) | Gram+ & Gram−, Fungi,; also recorded: Mammalian cells |
